Measurements: ChEMBL document CHEMBL4049399, “Novel pyrrolopyrimidines as Mps1/TTK kinase inhibitors for breast cancer” (Bioorg Med Chem, 2017)
pIC50: −log10 of the molar value. Converted amounts (≈) assume the structure as drawn. The source made the active and inactive calls. No cut-off for these calls is given here.

What was measured:
Mus musculus [1] = test: Toxicity in athymic nude mouse assessed as body weight at 10 mg/kg, ip administered once daily for 7 weeks measured at post last dose (reference value: 20 to 26 g); assay type: organism-based; conditions: in vivo, 1176 h
CAL-51 [2] = test: Antitumor activity against human CAL51 cells xenografted in athymic nude mouse assessed as reduction in tumor growth at 10 mg/kg, ip administered once daily measured after 3 to 7 weeks; assay type: functional, organism-based
Mus musculus [3] = test: Toxicity in athymic nude mouse assessed as body weight at 10 mg/kg, ip measured immediately (reference value: 20 to 26 g); assay type: organism-based; conditions: in vivo
CAL-51 [4] = test: Antiproliferative activity against human CAL51 cells assessed as reduction in cell viability after 5 to 7 days by CellTiter 96 aqueous solution assay; assay type: functional, cell-based
MCF7 = test: Antiproliferative activity against human MCF7 cells assessed as reduction in cell viability after 5 to 7 days by CellTiter 96 aqueous solution assay; assay type: functional, cell-based
SK-BR-3 = test: Antiproliferative activity against human SK-BR-3 cells assessed as reduction in cell viability after 5 to 7 days by CellTiter 96 aqueous solution assay; assay type: functional, cell-based
[5] = molecular target: T1, Dual specificity protein kinase TTK (Homo sapiens) (UniProt P33981); test: Inhibition of Mps1/TTK in human CAL51 cells assessed as reduction in centriole assembly during S-phase by measuring increase in BrdU positive cells with two centrioles incubated for 24 hrs followed by BrdU incorporation during last 4 hrs of incubation; assay type: cell-based
T1 sequence (whole entry): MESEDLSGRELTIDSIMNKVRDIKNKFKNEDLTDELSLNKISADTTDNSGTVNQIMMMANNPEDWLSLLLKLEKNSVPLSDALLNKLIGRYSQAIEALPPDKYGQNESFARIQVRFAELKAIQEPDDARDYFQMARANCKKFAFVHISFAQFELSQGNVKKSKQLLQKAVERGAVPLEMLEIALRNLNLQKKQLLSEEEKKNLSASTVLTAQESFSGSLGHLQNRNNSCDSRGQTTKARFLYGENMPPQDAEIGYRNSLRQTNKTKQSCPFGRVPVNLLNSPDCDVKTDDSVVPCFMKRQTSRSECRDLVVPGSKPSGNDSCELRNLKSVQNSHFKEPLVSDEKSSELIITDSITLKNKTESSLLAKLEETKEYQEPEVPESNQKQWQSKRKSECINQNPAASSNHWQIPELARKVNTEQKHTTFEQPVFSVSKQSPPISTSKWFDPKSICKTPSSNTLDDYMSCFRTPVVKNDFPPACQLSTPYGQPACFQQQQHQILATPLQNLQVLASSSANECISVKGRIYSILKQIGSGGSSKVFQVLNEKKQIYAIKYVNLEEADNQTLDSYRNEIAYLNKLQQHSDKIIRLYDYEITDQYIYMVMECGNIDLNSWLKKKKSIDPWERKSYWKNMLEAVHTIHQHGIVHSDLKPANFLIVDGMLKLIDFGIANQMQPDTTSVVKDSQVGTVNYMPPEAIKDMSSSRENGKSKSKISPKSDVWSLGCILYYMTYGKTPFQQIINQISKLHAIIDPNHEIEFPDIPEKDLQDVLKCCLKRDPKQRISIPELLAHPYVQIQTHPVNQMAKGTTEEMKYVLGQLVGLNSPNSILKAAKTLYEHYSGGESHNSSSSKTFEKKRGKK

[6] = molecular target: Non-receptor tyrosine-protein kinase TYK2 (Homo sapiens, UniProt P29597); test: Inhibition of human TYK2 using KKSRGDYMTMQIG as substrate in presence of [gamma-32P]ATP
[7] = AUC in ICR mouse at 50 mg/kg, ip by LC-MS/MS analysis; assay type: ADME, organism-based; conditions: in vivo
[8] = Solubility of the compound in 10:5:10:75 DMSO/Tween80/PEG400/saline by absorption spectrometric method; assay type: physicochemical
AU565 = test: Antiproliferative activity against human AU565 cells assessed as reduction in cell viability after 5 to 7 days by CellTiter 96 aqueous solution assay; assay type: functional, cell-based
[9] = molecular target: T1, Dual specificity protein kinase TTK (Homo sapiens); test: Inhibition of Mps1/TTK in human CAL51 cells assessed as reduction in centrosome amplification during S-phase by measuring decrease in cells with more than four centrioles incubated for 24 hrs followed by BrdU incorporation during last 4 hrs of incubation; assay type: cell-based
CAL-51 [10] = test: Antitumor activity against human CAL51 cells xenografted in athymic nude mouse assessed as reduction in tumor weight at 10 mg/kg, ip administered once daily measured after 7 weeks; assay type: functional, organism-based
T47D = test: Antiproliferative activity against human T47D cells assessed as reduction in cell viability after 5 to 7 days by CellTiter 96 aqueous solution assay; assay type: functional, cell-based
[11] = molecular target: Tyrosine-protein kinase SYK (Homo sapiens, UniProt P43405); test: Inhibition of human SYK using poly[Glu:Tyr] (4:1) as substrate in presence of [gamma-32P]ATP
CAMA-1 = test: Antiproliferative activity against human CAMA1 cells assessed as reduction in cell viability after 5 to 7 days by CellTiter 96 aqueous solution assay; assay type: functional, cell-based
[12] = molecular target: T1, Dual specificity protein kinase TTK (Homo sapiens); conditions: 1 uM
Hs-578T = test: Antiproliferative activity against human Hs578T cells assessed as reduction in cell viability after 5 to 7 days by CellTiter 96 aqueous solution assay; assay type: functional, cell-based
BT-20 = test: Antiproliferative activity against human BT20 cells assessed as reduction in cell viability after 5 to 7 days by CellTiter 96 aqueous solution assay; assay type: functional, cell-based
[13] = molecular target: T1, Dual specificity protein kinase TTK (Homo sapiens); test: Inhibition of Mps1/TTK in human CAL51 cells assessed as spindle assembly checkpoint arrest in response to nocodazole by measuring decrease in cyclin B level up to 10 uM by immunoblotting method; assay type: cell-based
[14] = Solubility of the compound in DMSO by absorption spectrometric method; assay type: physicochemical
MDA-MB-231 = test: Antiproliferative activity against human MDA-MB-231 cells assessed as reduction in cell viability after 5 to 7 days by CellTiter 96 aqueous solution assay; assay type: functional, cell-based
[15] = Elimination half-life in ICR mouse at 20 mg/kg, iv by LC-MS/MS analysis; assay type: ADME, organism-based; conditions: in vivo, read-out: beta t1/2 (converted)
CAL-51 [16] = test: Cytotoxicity against human CAL51 cells assessed as reduction in cell viability at 25 uM after 24 hrs by BrdU incorporation assay relative to control; assay type: functional
HCC1937 = test: Antiproliferative activity against human HCC1937 cells assessed as reduction in cell viability after 5 to 7 days by CellTiter 96 aqueous solution assay; assay type: functional, cell-based
[17] = molecular target: Phosphatidylinositol 4,5-bisphosphate 3-kinase catalytic subunit beta isoform (Homo sapiens, UniProt P42338); test: Inhibition of PI3Kbeta (unknown origin)
[18] = molecular target: T1, Dual specificity protein kinase TTK (Homo sapiens); conditions: 1 uM; remark: listed apart in the source
[19] = Systemic clearance in ICR mouse at 20 mg/kg, iv by LC-MS/MS analysis; assay type: ADME, organism-based; conditions: in vivo
BT-474 = test: Antiproliferative activity against human BT474 cells assessed as reduction in cell viability after 5 to 7 days by CellTiter 96 aqueous solution assay; assay type: functional, cell-based
MDA-MB-468 = test: Antiproliferative activity against human MDA-MB-468 cells assessed as reduction in cell viability after 5 to 7 days by CellTiter 96 aqueous solution assay; assay type: functional, cell-based
BT-549 = test: Antiproliferative activity against human BT549 cells assessed as reduction in cell viability after 5 to 7 days by CellTiter 96 aqueous solution assay; assay type: functional, cell-based
MDA-MB-436 = test: Antiproliferative activity against human MDA-MB-436 cells assessed as reduction in cell viability after 5 to 7 days by CellTiter 96 aqueous solution assay; assay type: functional, cell-based
MDA-MB-453 = test: Antiproliferative activity against human MDA-MB-453 cells assessed as reduction in cell viability after 5 to 7 days by CellTiter 96 aqueous solution assay; assay type: functional, cell-based
[20] = molecular target: T1, Dual specificity protein kinase TTK (Homo sapiens); test: Inhibition of Mps1/TTK in human MDA-MB-468 cells assessed as cell cycle arrest at mitotic stage by measuring decrease in spindle assembly checkpoint arrest in response to nocodazole by DAPI/Hoechst staining based assay

Chain of Non-receptor tyrosine-protein kinase TYK2 (P29597 whole entry): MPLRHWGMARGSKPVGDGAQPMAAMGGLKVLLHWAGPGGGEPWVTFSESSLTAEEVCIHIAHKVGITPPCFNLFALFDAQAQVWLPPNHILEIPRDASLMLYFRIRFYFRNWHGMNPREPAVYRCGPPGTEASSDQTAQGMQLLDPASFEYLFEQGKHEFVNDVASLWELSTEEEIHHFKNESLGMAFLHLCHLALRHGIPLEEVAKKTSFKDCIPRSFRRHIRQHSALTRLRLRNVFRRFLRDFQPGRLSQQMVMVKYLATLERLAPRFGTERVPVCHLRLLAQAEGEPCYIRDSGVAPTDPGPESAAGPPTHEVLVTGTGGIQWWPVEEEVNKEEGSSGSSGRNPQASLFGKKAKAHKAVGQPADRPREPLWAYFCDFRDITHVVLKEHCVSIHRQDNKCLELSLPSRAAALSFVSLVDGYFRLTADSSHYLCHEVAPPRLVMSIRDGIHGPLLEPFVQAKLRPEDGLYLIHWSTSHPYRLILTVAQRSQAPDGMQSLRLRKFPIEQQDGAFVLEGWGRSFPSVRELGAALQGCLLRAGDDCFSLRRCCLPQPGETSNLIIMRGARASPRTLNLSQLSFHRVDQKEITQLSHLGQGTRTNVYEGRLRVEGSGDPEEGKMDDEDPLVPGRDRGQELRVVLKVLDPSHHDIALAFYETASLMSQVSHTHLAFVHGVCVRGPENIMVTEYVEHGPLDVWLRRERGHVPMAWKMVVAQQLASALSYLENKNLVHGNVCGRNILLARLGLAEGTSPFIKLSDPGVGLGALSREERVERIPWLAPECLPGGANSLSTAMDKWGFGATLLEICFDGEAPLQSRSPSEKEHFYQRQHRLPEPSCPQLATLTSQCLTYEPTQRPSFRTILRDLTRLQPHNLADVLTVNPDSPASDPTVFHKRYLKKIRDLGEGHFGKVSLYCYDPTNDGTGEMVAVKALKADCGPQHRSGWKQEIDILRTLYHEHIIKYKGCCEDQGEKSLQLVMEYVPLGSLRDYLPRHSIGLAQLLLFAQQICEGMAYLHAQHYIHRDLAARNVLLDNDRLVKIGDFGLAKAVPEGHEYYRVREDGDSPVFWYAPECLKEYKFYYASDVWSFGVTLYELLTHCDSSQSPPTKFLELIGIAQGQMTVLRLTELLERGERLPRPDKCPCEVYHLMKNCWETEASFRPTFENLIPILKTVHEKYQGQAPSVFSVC
Chain of Phosphatidylinositol 4,5-bisphosphate 3-kinase catalytic subunit beta isoform (P42338 whole entry, canonical isoform): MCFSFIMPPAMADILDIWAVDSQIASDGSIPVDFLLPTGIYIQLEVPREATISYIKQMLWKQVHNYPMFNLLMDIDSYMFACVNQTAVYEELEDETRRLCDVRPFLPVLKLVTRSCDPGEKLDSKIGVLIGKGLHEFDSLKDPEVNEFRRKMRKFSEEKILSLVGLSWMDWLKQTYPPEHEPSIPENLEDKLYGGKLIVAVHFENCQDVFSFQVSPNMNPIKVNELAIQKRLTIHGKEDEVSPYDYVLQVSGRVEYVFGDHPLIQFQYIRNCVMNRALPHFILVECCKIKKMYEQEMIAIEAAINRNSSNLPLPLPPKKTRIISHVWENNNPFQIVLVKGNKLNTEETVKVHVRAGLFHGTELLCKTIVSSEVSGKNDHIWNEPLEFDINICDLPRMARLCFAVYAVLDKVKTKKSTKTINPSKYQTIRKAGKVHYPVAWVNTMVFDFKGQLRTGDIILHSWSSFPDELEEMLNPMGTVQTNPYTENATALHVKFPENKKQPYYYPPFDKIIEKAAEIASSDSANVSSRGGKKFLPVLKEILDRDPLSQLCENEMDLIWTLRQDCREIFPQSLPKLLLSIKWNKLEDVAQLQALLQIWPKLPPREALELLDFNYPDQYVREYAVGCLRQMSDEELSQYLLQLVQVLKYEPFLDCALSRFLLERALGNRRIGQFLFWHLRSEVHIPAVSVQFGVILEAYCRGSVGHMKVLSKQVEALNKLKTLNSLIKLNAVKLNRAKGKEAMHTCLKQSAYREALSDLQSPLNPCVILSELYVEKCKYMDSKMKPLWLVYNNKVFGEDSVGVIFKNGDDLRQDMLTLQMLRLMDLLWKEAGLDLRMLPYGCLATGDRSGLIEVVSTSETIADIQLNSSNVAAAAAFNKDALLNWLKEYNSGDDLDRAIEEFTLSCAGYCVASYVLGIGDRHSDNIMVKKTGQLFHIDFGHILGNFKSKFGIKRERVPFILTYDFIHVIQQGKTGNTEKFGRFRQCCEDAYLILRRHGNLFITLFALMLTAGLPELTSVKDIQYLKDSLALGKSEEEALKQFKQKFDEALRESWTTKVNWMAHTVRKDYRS

SMILES | pIC50 (CAL-51 [4]) | pIC50 (MCF7) | pIC50 (SK-BR-3) | inhibition [5] | pIC50 (AU565) | inhibition [9] | pIC50 (T47D) | pIC50 (CAMA-1) | pIC50 (Hs-578T) | pIC50 (BT-20) | inhibition [13] | pIC50 (MDA-MB-231) | pIC50 (HCC1937) | pIC50 (BT-474) | pIC50 (MDA-MB-468) | pIC50 (BT-549) | pIC50 (MDA-MB-436) | pIC50 (MDA-MB-453) | other results
COc1cc(N2CCOCC2)ccc1Nc1nc(NC2CCCCC2)c2cc[nH]c2n1 | 6.26 | < 5.00 | 6.40 | Dose-dependent effect | 6.02 | Dose-dependent effect | < 5.00 | 6.22 | < 5.00 | 6.43 | Active | < 5.00 | 5.99 | – | – | – | – | – | Activity (Mus musculus [1]): 26 g; TGI (CAL-51 [2]): Active; Activity (Mus musculus [3]): 24 g; pIC50 [6]: 3.88; AUC [7]: 8460 ng·h/mL; solubility [8]: 5000 µg/mL (≈ 11.8 mM); Activity (CAL-51 [10]): Active; pIC50 [11]: 3.82; inhibition [12]: Active; solubility [14]: 53400 µg/mL (≈ 126 mM); half-life [15]: 2.28 h; Activity (CAL-51 [16]): 70%; pIC50 [17]: 4.39; inhibition [18]: Active; clearance [19]: 292 mL/min/kg
COc1cc(N2CCOCC2)ccc1Nc1nc(Nc2ccccc2S(=O)(=O)C(C)C)c2cc[nH]c2n1 | 6.52 | 6.52 | 6.33 | – | < 5.00 | – | < 5.00 | 6.19 | < 5.00 | 5.77 | – | < 5.00 | 5.96 | 6.54 | 6.49 | 5.89 | 5.91 | < 5.00 | –
COc1cc(N2CCC(O)CC2)ccc1Nc1nc(Nc2ccccc2S(=O)(=O)C(C)C)c2cc[nH]c2n1 | 6.64 | 6.36 | < 5.00 | Dose-dependent effect | < 5.00 | Dose-dependent effect | < 5.00 | 6.44 | < 5.00 | 6.46 | Active | < 5.00 | 6.14 | < 5.00 | 6.72 | 6.09 | 6.05 | 6.09 | inhibition [20]: Dose-dependent effect
COc1cc(N2CCC(O)CC2)ccc1Nc1cc(Nc2ccccc2S(=O)(=O)C(C)C)c2cc[nH]c2n1 | 5.53 | < 5.00 | < 5.00 | – | < 5.00 | – | < 5.00 | < 5.00 | < 5.00 | < 5.00 | – | < 5.00 | < 5.00 | < 5.00 | 5.73 | 5.76 | < 5.00 | < 5.00 | –
COc1ccccc1Nc1nc(Nc2ccccc2S(=O)(=O)C(C)C)c2cc[nH]c2n1 | 5.90 | 6.46 | 6.12 | – | < 5.00 | – | 6.48 | 6.08 | < 5.00 | 7.22 | – | 6.40 | 6.08 | 6.33 | 5.80 | 5.66 | 5.28 | < 5.00 | –
